Entries after “also recorded” stand apart in the source; their conditions may differ.
Tests used:
SARS-CoV-2-GFP = format: cell-based
[1] = system: wild-type (wt) SARS-CoV-2; assay: Plaque assay of released viral progeny from pre-treated Vero E6 cells; format: cell-based; conditions: 6 h pre-treatment, range of concentrations, MOI 0.01, 48 hours post-infection
NHBE cells = format: cell-based, human
[2] = system: SARS-CoV (strain Frankfurt 1); format: cell-based; conditions: A549-ACE2 cells, 6 h pre-treatment, 24 hours infection
IL6 = format: cell-based, human; conditions: NHBEs, 0.75 μM, mock-, SARS-CoV or SARS-CoV-2 infected, 24 h post-infection
[3] = system: SARS-CoV-2 (strain MUC-IMB-1); assay: NP immunofluorescence in primary normal human bronchial cells (NHBE) ex vivo; format: cell-based; conditions: 6 h pre-treatment, MOI 3, 24 hours post-infection
[4] = system: SARS-CoV-2 (strain MUC-IMB-1); format: cell-based
IP-10 = assay: Secreted IP10 by ELISA in NHBEs; format: cell-based, human
SARS-CoV = conditions: described previously (ref. 70); cited from earlier work
[5] = system: SARS-CoV-2 (strain MUC-IMB-1); assay: Viral nucleoprotein (NP) western blot in A549-ACE2 cells; format: cell-based

Compound: CNc1ccc(/C=C/c2c(F)cccc2Cl)cc1 [FIDAS-5, (E)-4-(2-chloro-6-fluorostyryl)-N-methylaniline]
- antiviral activity of co-treatment with DZNep (SARS-CoV-2-GFP): synergistic antiviral activity
- antiviral activity: growth of SARS-CoV-2-GFP reporter virus (SARS-CoV-2-GFP): have antiviral activity against SARS-CoV-2
- released viral progeny in the supernatant by plaque assay [1]: dose-dependent suppression of the wt SARS-CoV-2

Compound: Cc1nc2ccc(-c3c(Nc4ccccn4)[nH]c4c(-c5ccccc5)c(-c5ccccc5)nn4c3=O)cc2s1 [MAT2A inhibitor 1]
- antiviral activity: growth of SARS-CoV-2-GFP reporter virus (SARS-CoV-2-GFP): have antiviral activity against SARS-CoV-2

Compound: CC(C)NC[C@@H](C(=O)N1CCN(c2ncnc3c2[C@H](C)C[C@H]3O)CC1)c1ccc(Cl)cc1 [ipatasertib]
- influence of DZNep co-treatment on the antiviral efficacy of the compound (SARS-CoV-2-GFP): does not negatively influence the antiviral efficacy

Compound: CCN(CCO)CCCC(C)Nc1ccnc2cc(Cl)ccc12 (stereo not drawn) [Hydroxychloroquine]
- influence of DZNep co-treatment on the antiviral efficacy of the compound (SARS-CoV-2-GFP): does not negatively influence the antiviral efficacy

Compound: CN(C)CCc1nnc2cc(-c3ccccc3)c3cc(Cl)ccc3n12 [PF-9366, 2-(7-Chloro-5-phenyl-[1,2,4]triazolo[4,3-a]quinolin-1-yl)-N,N-dimethylethan-1-amine]
- antiviral activity: growth of SARS-CoV-2-GFP reporter virus (SARS-CoV-2-GFP): have antiviral activity against SARS-CoV-2

Compound: Nc1ncnc2c1ncn2C[C@@H](O)[C@@H](O)C(=O)O [DER, D-eritadenine]
- antiviral activity: growth of SARS-CoV-2-GFP reporter virus (SARS-CoV-2-GFP): have antiviral activity against SARS-CoV-2

Compound: NC(CCSCCCCC(=O)O)C(=O)O (racemic) [CBHcy, S-(4-Carboxybutyl)-D,L-homocysteine]
- antiviral activity: growth of SARS-CoV-2-GFP reporter virus (SARS-CoV-2-GFP): have antiviral activity against SARS-CoV-2
- released viral progeny in the supernatant by plaque assay [1]: dose-dependent suppression of the wt SARS-CoV-2

Compound: IFN-α
- synergy of combination with DZNep (combination index, CI) (SARS-CoV-2-GFP): strong synergism

Compound: CNC(=O)[C@@H](NC(=O)[C@H](CC(C)C)[C@H](O)C(=O)NO)C(C)(C)C [marimastat]
- influence of DZNep co-treatment on the antiviral efficacy of the compound (SARS-CoV-2-GFP): does not negatively influence the antiviral efficacy

Compound: Nc1nccc2c1ncn2[C@@H]1C=C(CO)[C@@H](O)[C@H]1O [DZNep, 3-deazaneplanocin A]
- abundance of innate immunity related factors (e.g. IL1RN, C3 and TNFAIP3/A20) (NHBE cells): DZNep-dependent changes in abundance
- factors counteracting fibrotic processes (e.g. ELAFIN, SLPI and ECM1) (NHBE cells): up-regulation of factors counteracting fibrotic processes
- factors of extrinsic coagulation cascade (e.g. F3 and TFPI2) and plasminogen activation system (e.g. PAI1, PLAT, PLAU) (NHBE cells): reduction of factors of extrinsic coagulation cascade
- pulmonary fibrosis biomarkers (e.g. COL4A1, MMP14 and SERPINE1) (NHBE cells): reduction of pulmonary fibrosis biomarkers
- antiviral effect against SARS-CoV, expression of viral protein N [2]: do not observe an antiviral effect
- IL6 secretion/expression by ELISA (IL6): significantly reduced IL6 expression in all tested conditions
- inhibition of SARS-CoV-2 in primary human ex-vivo infection model [3]: potent inhibitor of SARS-CoV-2
- antiviral activity: growth of SARS-CoV-2-GFP reporter virus (SARS-CoV-2-GFP): have antiviral activity against SARS-CoV-2; also recorded: particularly strong antiviral efficacy
- role of STAT1 dependent interferon response in SARS-CoV-2 inhibition by the compound (SARS-CoV-2-GFP; STAT1 KO vs NTC A549-ACE2 cells, 6 h pre-treatment with DZNep and/or interferon alpha): does not play a major role in SARS-CoV-2 inhibition in vitro
- expression of viral proteins (SARS-CoV-2) by mass spectrometry [4]: clear reduction
- abundance changes of NP and spike (S), SARS-CoV-2 ([4]; A549-ACE2 (0.75 μM, 24 h) and NHBEs (1.5 μM, 36 h)): DZNep-dependent inhibition of SARS-CoV-2
- IP-10 secretion by ELISA (IP-10): IP-10 secretion was enhanced
- released viral progeny in the supernatant by plaque assay [1]: dose-dependent suppression of the wt SARS-CoV-2
- antiviral activity against SARS-CoV in an in vivo infection model (SARS-CoV): did not show antiviral activity against SARS-CoV
- virus nucleoprotein (NP) expression by western blot [5]: potent antiviral effect against SARS-CoV-2
